Measurements published in paper PMC3985299, “Single Ascending Dose Safety and Pharmacokinetics of CDRI-97/78: First-in-Human Study of a Novel Antimalarial Drug” (Malaria Research and Treatment, 2014).
“And” between values parts separate entries of the source, which are not always exact repeats. Equal values may be shown once. Read-outs that look alike come from different tables or passages of the source.

Columns and labels:
[1] = Single oral dose (200 mg) pharmacokinetic study, plasma LC-MS/MS, noncompartmental analysis; assay type: in vivo, human
Experimental: For pharmacokinetic (PK) study, eligible participants were admitted and housed in the clinical pharmacology unit an evening prior to the PK study. A standard dinner was served and a fasting condition for at least 10 hrs prior to dosing and 4 hrs after dosing was ensured. A peripheral forearm vein was cannulated for sampling for the PK analysis. 200 mg of the study drug was administered with 300 mL of water. The time of actual dose administration to the nearest minute was recorded. 2.5 mL of blood was collected from the indwelling cannula at 0 (before dose), 0.25, 0.5, 0.75, 1, 1.5, 2, 4, 6, 8, 12, 18, 24, 48, 72, 96, 120, and 144 hrs (after dose). 10 mL of additional blood was collected at 0 (before dose) and 24 hr (after dose) for laboratory parameters for safety assessment and PK control sample. A time window of ±2 minutes was permitted for collecting the post dose samples from the scheduled time for PK analysis. Plasma was separated from blood sample intended for PK analysis, within 1 hour of blood sampling, by centrifugation at 2000 rpm for 10 min at 4°C. Samples were stored at −80°C pending transportation. Heparinised blood samples were transported to the laboratory within 7 days of collection. Quantitative analyses of clinical phase ascending dose and single dose PKs samples were done at GLP lab of Pharmacokinetics and Metabolism Division, CDRI, Lucknow, India. α-Arteether was used as an internal standard and all the analyses were performed as per the published method by Singh et al. 2009 [19]. Acceptance criteria for analytical runs were fixed as per internationally approved guidelines. Data acquisition and quantitation were performed using analyst software version 1.4 (Applied Biosystems, MDS SCIEX Toronto, Canada). PK parameters were estimated by using WinNonlin software (Version 1.5, Pharsight Corporation, Mountain View, CA). Oral data were best fitted in noncompartmental model. The individual plasma concentration-time profiles were subjected to noncompartmental analysis to determine various PK parameters. The PK parameters included the terminal elimination half-life (T 1/2), maximum plasma concentration (C max), time to reach maximum plasma concentration (T max), area under the curve (AUC0–∞), and mean residence time (MRT).

[2] = parameters: method as in printed; conditions: background statement, ref not given; cited from earlier work
[3] = 97/63 after oral 97/78 200 mg single dose, Mean ± SEM, N = 16
[4] = 97/63 in plasma after oral 97/78 200 mg single dose, individual volunteers 1-16
[5] = human, plasma, po, 200 mg, 97/63 after oral 97/78 200 mg single dose, Mean ± SEM, N = 16

- AUC0−∞ [1, 3]: 878.74 ± 133.15 ng·h/mL
- MRT [1, 3]: 13.77 ± 2.05 h
- First time at which quantified in plasma ([1]; after oral 97/78 200 mg): 0.5 h
- Last time at which quantified in plasma ([1]; after oral 97/78 200 mg, two volunteers up to 72 h): up to 48 h
- Cmax [1, 5]: 144 ± 28.3 ng/mL
- Tmax [1, 5]: 2.28 ± 0.27 h
- AUC(0-inf) ([1]; male, human, plasma, po, 200 mg, 97/63 after oral 97/78 200 mg single dose, Mean ± SEM, N = 16): 845 ± 143 ng·h/mL
- MRT ([1]; male, human, plasma, po, 200 mg, 97/63 after oral 97/78 200 mg single dose, Mean ± SEM, N = 16, read-out: MRT): 9.73 ± 1.06 h
- Cmax ([1]; male, human, plasma, po, 200 mg, 97/63 after oral 97/78 200 mg, mean, as given in text without unit): 144 ± 28.3 ng/mL
SMILES: C=C(c1ccc(OC(C)(C)CO)cc1)C1COC2(OO1)C1CC3CC(C1)CC2C3 (stereo not drawn) [97/63]
- AUC0−∞ [1, 4]: 788.7 ng·h/mL and 1898.9 ng·h/mL and 935 ng·h/mL and 356.1 ng·h/mL and 583.6 ng·h/mL and 696.8 ng·h/mL and 833.1 ng·h/mL and 984.1 ng·h/mL and 104.8 ng·h/mL and 1644 ng·h/mL and 602.6 ng·h/mL and 785 ng·h/mL and 1522.6 ng·h/mL and 207.9 ng·h/mL and 1604.9 ng·h/mL and 511.7 ng·h/mL
- C max [1, 4]: 172 ng/mL and 295 ng/mL and 47.4 ng/mL and 50.4 ng/mL and 65.4 ng/mL and 105 ng/mL and 55 ng/mL and 123 ng/mL and 20.1 ng/mL and 373 ng/mL and 187 ng/mL and 149 ng/mL and 355 ng/mL and 42.6 ng/mL and 202 ng/mL and 60.9 ng/mL
- MRT [1, 4]: 12.57 h and 9.76 h and 30.72 h and 14.53 h and 11.26 h and 18.37 h and 32.20 h and 18.52 h and 5.72 h and 13.7 h and 3.53 h and 5.38 h and 14.25 h and 6.42 h and 14.13 h and 9.28 h
- T 1/2 [1, 4]: 13.89 h and 11.63 h and 24.26 h and 14.50 h and 10.10 h and 17.73 h and 24.51 h and 18.90 h and 2.17 h and 4.78 h and 2.20 h and 3.88 h and 21.27 h and 3.00 h and 8.94 h and 7.80 h
- T max [1, 4]: 1.5 h (5×) and 2 h (6×) and 4 h (4×) and 1 h
- Bioavailability [2]: poor
